# Data taken from patent US20240217990A1 (Gilead Sciences, Inc., priority 2021, published 2024).
# Experiments:
# TLR7 = molecular target: T1, TLR7 (Homo sapiens, UniProt Q9NYK1); experiment: TLR7 human PBMC cell-based assay (antagonist, GS-986 stimulated cytokine release); settings: human PBMCs; TLR7 agonist GS-986 400 nM, 6 hours; cytokines (IL-6 and IFNα) in supernatant; read-out: TLR-7 EC50
# T1 construct: Human peripheral blood mononuclear cells (PBMCs) consist of lymphocytes, monocytes and dendritic cells that express TLR7, TLR8 and TLR9; endogenous in cells; host or cells: cryopreserved human PBMCs from healthy donors
# T1 sequence (Q9NYK1 27-1049): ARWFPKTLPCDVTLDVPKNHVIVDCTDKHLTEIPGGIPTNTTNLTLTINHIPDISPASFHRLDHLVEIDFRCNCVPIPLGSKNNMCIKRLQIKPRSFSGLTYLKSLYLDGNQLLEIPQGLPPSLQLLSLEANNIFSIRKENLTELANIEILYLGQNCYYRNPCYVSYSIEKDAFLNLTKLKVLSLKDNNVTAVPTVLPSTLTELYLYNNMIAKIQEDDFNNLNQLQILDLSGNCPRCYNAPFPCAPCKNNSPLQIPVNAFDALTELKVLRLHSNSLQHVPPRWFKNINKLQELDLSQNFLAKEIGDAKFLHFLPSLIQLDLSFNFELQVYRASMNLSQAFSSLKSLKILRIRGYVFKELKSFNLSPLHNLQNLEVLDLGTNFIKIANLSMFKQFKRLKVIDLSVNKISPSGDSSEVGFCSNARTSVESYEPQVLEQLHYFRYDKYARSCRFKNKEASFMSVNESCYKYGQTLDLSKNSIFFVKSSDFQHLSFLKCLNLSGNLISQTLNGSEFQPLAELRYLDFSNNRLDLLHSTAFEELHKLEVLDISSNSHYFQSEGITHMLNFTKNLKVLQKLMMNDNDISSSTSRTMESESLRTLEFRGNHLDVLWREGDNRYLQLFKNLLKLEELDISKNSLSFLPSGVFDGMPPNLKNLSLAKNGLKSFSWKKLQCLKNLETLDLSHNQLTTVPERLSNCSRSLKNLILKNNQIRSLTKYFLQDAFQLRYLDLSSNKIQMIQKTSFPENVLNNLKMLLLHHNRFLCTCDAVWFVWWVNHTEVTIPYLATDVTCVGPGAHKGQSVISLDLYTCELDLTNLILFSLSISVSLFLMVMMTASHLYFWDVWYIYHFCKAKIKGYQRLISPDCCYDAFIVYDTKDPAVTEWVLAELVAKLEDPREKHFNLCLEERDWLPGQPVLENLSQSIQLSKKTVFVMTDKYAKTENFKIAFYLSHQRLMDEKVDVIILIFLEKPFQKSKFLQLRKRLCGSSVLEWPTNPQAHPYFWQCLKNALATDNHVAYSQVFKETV
# Procedure, shortened: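 Cryopreserved healthy-donor PBMCs (100,000/well, RPMI-1640 + 10% FBS) pre-incubated 1 h at 37 °C with antagonist (10-point dose response, quadruplicate), then stimulated 6 h with GS-986 at 400 nM final. Supernatant IL-6 and IFNα measured by electrochemiluminescence immunoassay; EC50 from sigmoidal fit.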
# TLR8 = molecular target: T2, TLR8 (Homo sapiens, UniProt Q9NR97); experiment: TLR8 human PBMC cell-based assay (antagonist, Compound A stimulated cytokine release); settings: human PBMCs; TLR8 agonist Compound A 800 nM, 6 hours; cytokines (TNFa and IL 12p40) in supernatant; read-out: TLR-8 EC50
# T2 construct: Human peripheral blood mononuclear cells (PBMCs) consist of lymphocytes, monocytes and dendritic cells that express TLR7, TLR8 and TLR9; endogenous in cells; host or cells: cryopreserved human PBMCs from healthy donors
# T2 sequence (Q9NR97 27-1041): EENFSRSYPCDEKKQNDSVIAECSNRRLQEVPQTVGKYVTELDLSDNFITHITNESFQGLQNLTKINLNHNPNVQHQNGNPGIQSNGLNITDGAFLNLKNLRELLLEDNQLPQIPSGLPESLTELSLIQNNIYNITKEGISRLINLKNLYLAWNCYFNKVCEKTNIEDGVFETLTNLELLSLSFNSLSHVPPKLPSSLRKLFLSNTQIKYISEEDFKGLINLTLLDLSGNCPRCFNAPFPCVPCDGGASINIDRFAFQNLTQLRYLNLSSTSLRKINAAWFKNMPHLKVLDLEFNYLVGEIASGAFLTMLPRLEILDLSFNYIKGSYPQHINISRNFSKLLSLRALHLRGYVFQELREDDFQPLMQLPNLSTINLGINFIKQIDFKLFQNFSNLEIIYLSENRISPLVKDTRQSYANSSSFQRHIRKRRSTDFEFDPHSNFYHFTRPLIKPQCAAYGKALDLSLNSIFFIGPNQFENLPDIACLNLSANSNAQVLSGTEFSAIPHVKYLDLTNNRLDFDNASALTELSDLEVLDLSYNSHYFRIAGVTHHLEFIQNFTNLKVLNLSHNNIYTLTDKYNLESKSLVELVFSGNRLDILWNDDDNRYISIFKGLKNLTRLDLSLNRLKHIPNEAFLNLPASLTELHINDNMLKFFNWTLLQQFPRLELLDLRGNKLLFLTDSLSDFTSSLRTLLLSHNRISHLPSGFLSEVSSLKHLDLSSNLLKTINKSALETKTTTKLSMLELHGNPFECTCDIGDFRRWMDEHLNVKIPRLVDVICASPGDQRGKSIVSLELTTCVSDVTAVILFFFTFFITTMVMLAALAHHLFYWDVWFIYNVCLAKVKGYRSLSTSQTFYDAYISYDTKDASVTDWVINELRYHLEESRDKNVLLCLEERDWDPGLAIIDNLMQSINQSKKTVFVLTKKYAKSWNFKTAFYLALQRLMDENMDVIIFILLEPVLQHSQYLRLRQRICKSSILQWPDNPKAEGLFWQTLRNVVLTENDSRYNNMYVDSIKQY
# Procedure, shortened: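 Cryopreserved donor PBMCs (100,000/well, RPMI + 10% FBS) were preincubated 1 h with antagonist (10-point dose response, quadruplicate), then stimulated with Compound A (800 nM final) for 6 h at 37 °C. TNFa and IL-12p40 in supernatants were measured by electrochemiluminescence; sigmoidal fits gave EC50.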
SMILES,EC50 (TLR7) [nM],EC50 (TLR8) [nM]
Cc1cc(-c2[nH]c3cc(-c4nc(C5CCN(CC(N)=O)CC5)no4)sc3c2C(C)C)cn2ncnc12 [Example 166],5.1,5.1
"Cc1cc(-c2[nH]c3cc(C4CCN(C(=O)CN5CCCC5)CC4)sc3c2C(C)C)cn2ncnc12 [Example 196, 1-(4-(6-isopropyl-5-(8-methyl-[1,2,4]triazolo[1,5-a]pyridin-6-yl)-4H-thieno[3,2-b]pyrrol-2-yl)piperidin-1-yl)-2-(pyrrolidin-1-yl)ethan-1-one]",1.3,4.2
Cc1cc(-c2[nH]c3cc(C(=O)N4CCC5(CCNC5)C4)sc3c2C(C)C)cc(C)n1 (centres unmarked) [Example 14],311,586
Cc1cc(-c2[nH]c3cc(C(=O)N(C)CCN4CCCC4)sc3c2C(C)C)cn2ncnc12 [Example 99],4.1,11.6
Cc1cc(-c2[nH]c3cc(-c4nc5ccc(N6CCNCC6)cc5[nH]4)sc3c2C(C)C)cn2ncnc12 [Example 237],6.8,49.4
Cc1cc(-c2[nH]c3cc(C4CCC5(CC4)CNC5)sc3c2C(C)C)cn2ncnc12 [Example 160],0.4,7.1
"CCc1c(-c2cc(C)c3ncnn3c2)[nH]c2cc(C(=O)N3CCNCC3)sc12 [Example 62, [6-ethyl-5-(8-methyl-[1,2,4]triazolo[1,5-a]pyridin-6-yl)-4H-thieno[3,2-b]pyrrol-2-yl]-piperazin-1-yl-methanone]",5.5,5.7
CCc1c(-c2cc(C)c3ncnn3c2)[nH]c2cc(-c3nc4ccc(N5CCNCC5)cc4[nH]3)sc12 [Example 245],337,66.7
Cc1cc(-c2[nH]c3cc(C(=O)N(C)[C@H]4CCNC[C@H]4F)sc3c2C(C)C)cn2ncnc12 [Example 80],0.5,9.5
Cc1cc(-c2[nH]c3cc(C(=O)N(C)C4CCNCC4)sc3c2C(C)C)cc(C)n1 [Example 10],18.3,55.4
Cc1cc(-c2[nH]c3cc(C(=O)N4CCNC[C@@H]4C)sc3c2C(C)C)cn2ncnc12 [Example 149],2.8,10.5
Cc1cc(-c2[nH]c3cc(C4CCN(C(=O)C5CN6CCC5CC6)CC4)sc3c2C(C)C)cn2ncnc12 (centres unmarked) [Example 204],0.5,9.9
Cc1c(C(=O)N2CCC[C@@H]3NCC[C@@H]32)sc2c(C(C)C)c(-c3cc(C)c4ncnn4c3)[nH]c12 [Example 243],52.4,82.9
Cc1cc(-c2[nH]c3cc(C(=O)N4CCC[C@H]4CN)sc3c2C(C)C)cn2ncnc12 [Example 145],3.8,46.3
Cc1cc(-c2[nH]c3cc(C4CCCC5(CNC5)C4)sc3c2C(C)C)cn2ncnc12 (centres unmarked) [Example 159],1.2,37.5
Cc1cc(-c2[nH]c3cc(C(=O)N4CCC(N)CC4)sc3c2C(C)C)cc(C)n1 [Example 2],37.5,31.7
Cc1cc(-c2[nH]c3cc(C(=O)N4CCN(C)CC4)sc3c2C(C)C)cn2ncnc12 [Example 43],6.4,2.6
Cc1cc(-c2[nH]c3cc(C(=O)N4CCC5CCNCC54)sc3c2C(C)C)cn2ncnc12 (centres unmarked) [Example 89],2.5,26.2
Cc1cc(-c2[nH]c3cc(C(=O)N4CC5(CCNCC5)C4)sc3c2C(C)C)cn2ncnc12 [Example 126],2.5,15.7
"Cc1cc(-c2[nH]c3cc(C4CCN(CC5(C)COC5)CC4)sc3c2C(C)C)cn2ncnc12 [Example 186, 6-isopropyl-5-(8-methyl-[1,2,4]triazolo[1,5-a]pyridin-6-yl)-2-(1-((3-methyloxetan-3-yl)methyl)piperidin-4-yl)-4H-thieno[3,2-b]pyrrole]",2.1,3.1
Cc1cc(-c2[nH]c3cc(C(=O)N4CCC[C@H](N)C4)sc3c2C(C)C)cc(C)n1 [Example 11],28.7,105

# Next, values leading:
EC50 (TLR7) [nM],EC50 (TLR8) [nM],SMILES
0.44,3.52,Cc1cc(-c2[nH]c3cc(C4CC4C(=O)N4CCNCC4)sc3c2C(C)C)cn2ncnc12 (centres unmarked) [Example 303]
0.4,6.1,"Cc1cc(-c2[nH]c3cc(C(=O)C4CCNCC4)sc3c2C(C)C)cn2ncnc12 [Example 277, (6-isopropyl-5-(8-methyl-[1,2,4]triazolo[1,5-a]pyridin-6-yl)-4H-thieno[3,2-b]pyrrol-2-yl)(piperidin-4-yl)methanone]"
0.76,6.45,Cc1cc(-c2[nH]c3cc(C4CC5CCC4CN5CC(N)=O)sc3c2C(C)C)cn2ncnc12 (centres unmarked) [Example 288]
0.56,5.31,Cc1cc(-c2[nH]c3cc(C4CCC5CN(CC(N)=O)CCC5C4)sc3c2C(C)C)cn2ncnc12 (centres unmarked) [Example 287]
0.3,6,"Cc1cc(-c2[nH]c3cc(-c4cn(C5CCNCC5)nn4)sc3c2C(C)C)cn2ncnc12 [Example 263, 6-isopropyl-5-(8-methyl-[1,2,4]triazolo[1,5-a]pyridin-6-yl)-2-(1-(piperidin-4-yl)-1H-1,2,3-triazol-4-yl)-4H-thieno[3,2-b]pyrrole]"
0.34,15.2,Cc1cc(-c2[nH]c3cc(C4CCC5(CC4)CN(C(=O)[C@@H]4COCCN4)C5)sc3c2C(C)C)cn2ncnc12 [Example 285]
1.8,4.9,"Cc1cc(-c2[nH]c3cc(-c4ccc(N5CCN(C)CC5)c(F)c4)sc3c2C(C)C)cn2ncnc12 [Example 272, 2-(3-Fluoro-4-(4-methylpiperazin-1-yl)phenyl)-6-isopropyl-5-(8-methyl-[1,2,4]triazolo[1,5-a]pyridin-6-yl)-4F1-thieno[3,2-b]pyrrole]"
1.7,8.2,"Cc1cc(-c2[nH]c3cc(CN4CCN(C)CC4)sc3c2C(C)C)cn2ncnc12 [Example 265, 6-isopropyl-5-(8-methyl-[1,2,4]triazolo[1,5-a]pyridin-6-yl)-2-((4-methylpiperazin-1-yl)methyl)-4H-thieno[3,2-b]pyrrole]"
6.6,11,Cc1cc(-c2[nH]c3cc(C(=O)N(C)C4CCC(N5CC(F)C5)CC4)sc3c2C(C)C)cn2ncnc12 (centres unmarked) [Example 250]
0.3,7.93,Cc1cc(-c2[nH]c3cc(C4CCN(C(=O)[C@H]5COCCN5)CC4)sc3c2C(C)C)cn2ncnc12 [Example 292]
